Laboratory results as given in PubChem BioAssay (NCI).
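1) Cells in 96-well plates. 2) Compound, 48 h, 5 concentrations. 3) Linear interpolation between surrounding doses. 4) Unreached endpoint = highest concentration. The concentration for full growth arrest is given as TGI.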

Tests used:
Experiment in all cases: NCI tumour cell line growth inhibition, 48 h
ACHN renal = test system: ACHN renal
LOX IMVI melanoma = test system: LOX IMVI melanoma
UO-31 renal = test system: UO-31 renal
UACC-62 melanoma = test system: UACC-62 melanoma
SK-MEL-5 melanoma = test system: SK-MEL-5 melanoma
SK-OV-3 ovarian = test system: SK-OV-3 ovarian
T-47D breast = test system: T-47D breast
EKVX NSCLC = test system: EKVX NSCLC
NCI/ADR-RES ovarian = test system: NCI/ADR-RES ovarian
MCF7 breast = test system: MCF7 breast

Measured: TGI

Cc1cc(Nc2ccc(S(=O)(=O)O)c3cc(S(=O)(=O)O)cc(S(=O)(=O)O)c23)c2ccccc2n1
> 100 µM: all assays above

C=C1CCN2CC[C@@H](OC(=O)/C(C)=C\C)[C@@H]12
> 100 µM: all assays above

CC(=O)Nn1c(=S)[nH]c2ccccc21
> 100 µM: all assays above

Cc1oc2c(cc(O)c3cc(O)ccc32)c2cccc1-2
> 100 µM: all assays above
